PubChem BioAssay (NCI)
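Protocol summary: plate cells (96-well), add compound at 5 concentrations, incubate 48 h, interpolate endpoints linearly. TGI: total growth inhibition.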

Experiments:
Assay in all cases: DTP human tumour cell line panel, 48 h
[1] = test system: UO-31 renal
[2] = test system: SN12C renal
[3] = test system: MDA-N
[4] = test system: HCT-116 colon
[5] = test system: CCRF-CEM leukemia
[6] = test system: OVCAR-5 ovarian
[7] = test system: DU-145 prostate
[8] = test system: SNB-19 CNS
[9] = test system: K-562 leukemia
[10] = test system: SW-620 colon
[11] = test system: SF-295 CNS
[12] = test system: MDA-MB-231 breast
[13] = test system: COLO 205 colon
[14] = test system: NCI-H522 lung
[15] = test system: HT29 colon
[16] = test system: SK-MEL-5 melanoma
[17] = test system: MOLT-4 leukemia
[18] = test system: OVCAR-4 ovarian
[19] = test system: BT-549 breast
[20] = test system: TK-10 renal
[21] = test system: SK-OV-3 ovarian
[22] = test system: SR leukemia
[23] = test system: SK-MEL-2 melanoma
[24] = test system: LOX IMVI melanoma
[25] = test system: SNB-75 CNS
[26] = test system: MDA-MB-435
[27] = test system: OVCAR-3 ovarian
[28] = test system: MCF7 breast
[29] = test system: UACC-257 melanoma
[30] = test system: CAKI-1 renal
[31] = test system: SK-MEL-28 melanoma
[32] = test system: KM12 colon
[33] = test system: SF-268 CNS
[34] = test system: RPMI-8226 leukemia
[35] = test system: 786-0 renal
[36] = test system: EKVX NSCLC
[37] = test system: NCI-H23 lung
[38] = test system: UACC-62 melanoma
[39] = test system: NCI/ADR-RES ovarian
[40] = test system: ACHN renal
[41] = test system: SF-539 CNS
[42] = test system: HOP-92 NSCLC
[43] = test system: IGROV1 ovarian
[44] = test system: NCI-H226 lung
[45] = test system: HOP-62 NSCLC
[46] = test system: OVCAR-8 ovarian
[47] = test system: A549 NSCLC
[48] = test system: HCC-2998 colon
[49] = test system: HCT-15 colon
[50] = test system: NCI-H460 lung
[51] = test system: RXF 393 renal
[52] = test system: PC-3 prostate
[53] = test system: M14 melanoma
[54] = test system: U251 CNS
[55] = test system: MALME-3M melanoma
[56] = test system: A498 renal
[57] = test system: HL-60(TB) leukemia

With `COC(=O)[C@@]12CCCC(=O)[C@@H]1[C@H]1CCC[C@H]12` the TGI [1] was greater than 100 µM, the TGI [2] was greater than 100 µM and the TGI [3] was greater than 100 µM. The TGI [4] was greater than 100 µM, the TGI [5] was greater than 100 µM and the TGI [6] was greater than 100 µM. For the same compound, the TGI [7] was greater than 100 µM, the TGI [8] was greater than 100 µM and the TGI [9] was greater than 100 µM. It also gave a TGI [10] greater than 100 µM, a TGI [11] greater than 100 µM and a TGI [12] greater than 100 µM. For the same compound, the TGI [13] was greater than 100 µM, the TGI [14] was greater than 100 µM and the TGI [15] was greater than 100 µM. It also gave a TGI [16] greater than 100 µM, a TGI [17] greater than 100 µM and a TGI [18] greater than 100 µM. The TGI [19] was greater than 100 µM, the TGI [20] was greater than 100 µM and the TGI [21] was greater than 100 µM. It also gave a TGI [22] greater than 100 µM, a TGI [23] greater than 100 µM and a TGI [24] greater than 100 µM. The TGI [25] was greater than 100 µM, the TGI [26] was greater than 100 µM and the TGI [27] was greater than 100 µM. For the same compound, the TGI [28] was greater than 100 µM, the TGI [29] was greater than 100 µM and the TGI [30] was greater than 100 µM. The TGI [31] was greater than 100 µM, the TGI [32] was greater than 100 µM and the TGI [33] was greater than 100 µM. For the same compound, the TGI [34] was greater than 100 µM, the TGI [35] was greater than 100 µM and the TGI [36] was greater than 100 µM. The TGI [37] was greater than 100 µM, the TGI [38] was greater than 100 µM and the TGI [39] was greater than 100 µM. For the same compound, the TGI [40] was greater than 100 µM, the TGI [41] was greater than 100 µM and the TGI [42] was greater than 100 µM. It also gave a TGI [43] greater than 100 µM, a TGI [44] greater than 100 µM and a TGI [45] greater than 100 µM. It also gave a TGI [46] greater than 100 µM, a TGI [47] greater than 100 µM and a TGI [48] greater than 100 µM. The TGI [49] was greater than 100 µM, the TGI [50] was greater than 100 µM and the TGI [51] was greater than 100 µM. For the same compound, the TGI [52] was greater than 100 µM, the TGI [53] was greater than 100 µM and the TGI [54] was greater than 100 µM. It also gave a TGI [55] greater than 100 µM.
In the case of `CCc1nnc(CC)n1-n1c(Cc2ccccc2)n[nH]c1=O`, the TGI [1] is reported as greater than 100 µM, the TGI [2] is reported as greater than 100 µM and the TGI [3] is reported as greater than 100 µM. The TGI [4] was greater than 100 µM, the TGI [5] was greater than 100 µM and the TGI [6] was greater than 100 µM. The TGI [7] was greater than 100 µM, the TGI [8] was greater than 100 µM and the TGI [9] was greater than 100 µM. For the same compound, the TGI [10] was greater than 100 µM, the TGI [11] was greater than 100 µM and the TGI [12] was greater than 100 µM. The TGI [13] was greater than 100 µM, the TGI [14] was greater than 100 µM and the TGI [15] was greater than 100 µM. For the same compound, the TGI [16] was greater than 100 µM, the TGI [17] was greater than 100 µM and the TGI [18] was greater than 100 µM. The TGI [19] was greater than 100 µM, the TGI [20] was greater than 100 µM and the TGI [21] was greater than 100 µM. It also gave a TGI [22] greater than 100 µM, a TGI [23] greater than 100 µM and a TGI [24] greater than 100 µM. The TGI [25] was greater than 100 µM, the TGI [26] was greater than 100 µM and the TGI [27] was greater than 100 µM. It also gave a TGI [28] greater than 100 µM, a TGI [29] greater than 100 µM and a TGI [31] greater than 100 µM. The TGI [32] was greater than 100 µM, the TGI [33] was greater than 100 µM and the TGI [34] was greater than 100 µM. For the same compound, the TGI [35] was greater than 100 µM, the TGI [36] was greater than 100 µM and the TGI [37] was greater than 100 µM. The TGI [38] was greater than 100 µM, the TGI [39] was greater than 100 µM and the TGI [40] was greater than 100 µM. It also gave a TGI [41] greater than 100 µM, a TGI [42] greater than 100 µM and a TGI [43] greater than 100 µM. The TGI [45] was greater than 100 µM, the TGI [46] was greater than 100 µM and the TGI [47] was greater than 100 µM. The TGI [48] was greater than 100 µM, the TGI [49] was greater than 100 µM and the TGI [51] was greater than 100 µM. It also gave a TGI [52] greater than 100 µM, a TGI [53] greater than 100 µM and a TGI [54] greater than 100 µM.
`O=C1CC[C@@]2(O)[C@H]3Cc4ccc(-c5cccc(O)c5)c5c4[C@@]2(CCN3CC2CC2)[C@H]1O5` was tested, and the TGI [1] was 42.7 µM, the TGI [2] was greater than 83.3 µM and the TGI [3] was 30.9 µM. It also gave a TGI [4] of 38.6 µM, a TGI [5] of 0.513 µM and a TGI [6] greater than 80.3 µM. It also gave a TGI [7] greater than 100 µM, a TGI [8] greater than 100 µM and a TGI [9] of 47 µM. The TGI [56] was 48.3 µM, the TGI [10] was greater than 55.6 µM and the TGI [11] was 43.9 µM. The TGI [12] was 46.9 µM, the TGI [13] was 43.3 µM and the TGI [14] was 30.9 µM. For the same compound, the TGI [15] was 33.4 µM, the TGI [16] was 31.2 µM and the TGI [17] was 56.4 µM. For the same compound, the TGI [18] was greater than 100 µM, the TGI [57] was 4.92 µM and the TGI [19] was 76.6 µM. For the same compound, the TGI [20] was 47 µM, the TGI [22] was 66.9 µM and the TGI [23] was 24.8 µM. It also gave a TGI [24] of 27.2 µM, a TGI [26] of 27.8 µM and a TGI [27] of 43.9 µM. For the same compound, the TGI [28] was greater than 92.4 µM, the TGI [29] was 26.5 µM and the TGI [30] was greater than 100 µM. It also gave a TGI [31] greater than 100 µM, a TGI [32] of 57.5 µM and a TGI [33] of 67.1 µM. For the same compound, the TGI [34] was 52.1 µM, the TGI [35] was 36.6 µM and the TGI [36] was greater than 30.4 µM. For the same compound, the TGI [37] was greater than 84 µM, the TGI [38] was 28.2 µM and the TGI [39] was 53.2 µM. For the same compound, the TGI [40] was greater than 85.9 µM, the TGI [41] was 36.6 µM and the TGI [42] was 80.8 µM. For the same compound, the TGI [43] was greater than 89.6 µM, the TGI [44] was 90.2 µM and the TGI [45] was 66.2 µM. The TGI [46] was 44.4 µM, the TGI [47] was greater than 100 µM and the TGI [48] was 34.1 µM. It also gave a TGI [49] of 71.3 µM, a TGI [50] of 29.2 µM and a TGI [51] of 52.7 µM. For the same compound, the TGI [52] was greater than 91.2 µM, the TGI [53] was 26.2 µM and the TGI [54] was 25.1 µM.
